Source: patent US20230391768A2, “IMIDAZOPYRIDINE DERIVATIVES AND AZA-IMIDAZOPYRIDINE DERIVATIVES AS JANUS KINASE 2 INHIBITORS AND USES THEREOF” (Dana-Farber Cancer Institute, Inc., priority 2018, published 2023)

Experiments:
Experiment in all cases: KINOMEscan
Format in all cases: binding
MERTK = MERTK (Homo sapiens (Human), UniProt Q12866); conditions: read-out: percent of control
Protocol: (§1) In vitro profiling of Compound I-2 (1 μM) was performed using the DiscoveRx KINOMEscan® platform.

YANK2 = YANK2 (Homo sapiens (Human), UniProt Q9NY57); conditions: read-out: percent of control
YANK2, sequence (Q9NY57 whole entry): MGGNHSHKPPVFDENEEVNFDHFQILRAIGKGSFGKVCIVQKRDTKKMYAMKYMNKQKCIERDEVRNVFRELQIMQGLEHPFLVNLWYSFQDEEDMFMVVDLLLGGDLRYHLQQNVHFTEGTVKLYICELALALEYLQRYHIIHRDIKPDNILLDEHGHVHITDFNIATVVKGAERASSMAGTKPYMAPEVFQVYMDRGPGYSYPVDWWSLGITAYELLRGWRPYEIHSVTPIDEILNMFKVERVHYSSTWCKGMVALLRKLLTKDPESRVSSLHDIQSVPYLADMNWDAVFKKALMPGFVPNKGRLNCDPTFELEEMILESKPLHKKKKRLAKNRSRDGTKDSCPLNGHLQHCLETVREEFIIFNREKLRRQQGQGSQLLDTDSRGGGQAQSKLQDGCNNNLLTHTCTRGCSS
Protocol: as §1

PRKCH = PRKCH (Homo sapiens (Human), UniProt P24723); conditions: read-out: percent of control
Protocol: as §1

CDC2L1 = CDC2L1 (Homo sapiens (Human), UniProt P21127); conditions: read-out: percent of control
Protocol: as §1

YANK1 = YANK1 (Homo sapiens (Human), UniProt Q8WU08); conditions: read-out: percent of control
YANK1, sequence (Q8WU08 whole entry): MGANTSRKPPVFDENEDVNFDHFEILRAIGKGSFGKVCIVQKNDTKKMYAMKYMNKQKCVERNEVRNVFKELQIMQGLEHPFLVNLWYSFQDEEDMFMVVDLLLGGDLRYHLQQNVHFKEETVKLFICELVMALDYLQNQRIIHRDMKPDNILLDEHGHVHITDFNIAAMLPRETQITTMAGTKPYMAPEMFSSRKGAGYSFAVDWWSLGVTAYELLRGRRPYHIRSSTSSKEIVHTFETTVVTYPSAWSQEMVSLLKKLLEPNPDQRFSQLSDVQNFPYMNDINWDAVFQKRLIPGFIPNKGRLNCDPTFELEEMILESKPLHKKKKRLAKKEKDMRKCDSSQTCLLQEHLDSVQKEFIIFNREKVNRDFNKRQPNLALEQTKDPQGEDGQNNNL
Protocol: as §1

CSNK2A2 = CSNK2A2 (Homo sapiens (Human), UniProt P19784); conditions: read-out: percent of control
Protocol: as §1

CAMK2A = CAMK2A (Homo sapiens (Human), UniProt Q9UQM7); conditions: read-out: percent of control
CAMK2A, sequence (Q9UQM7 whole entry): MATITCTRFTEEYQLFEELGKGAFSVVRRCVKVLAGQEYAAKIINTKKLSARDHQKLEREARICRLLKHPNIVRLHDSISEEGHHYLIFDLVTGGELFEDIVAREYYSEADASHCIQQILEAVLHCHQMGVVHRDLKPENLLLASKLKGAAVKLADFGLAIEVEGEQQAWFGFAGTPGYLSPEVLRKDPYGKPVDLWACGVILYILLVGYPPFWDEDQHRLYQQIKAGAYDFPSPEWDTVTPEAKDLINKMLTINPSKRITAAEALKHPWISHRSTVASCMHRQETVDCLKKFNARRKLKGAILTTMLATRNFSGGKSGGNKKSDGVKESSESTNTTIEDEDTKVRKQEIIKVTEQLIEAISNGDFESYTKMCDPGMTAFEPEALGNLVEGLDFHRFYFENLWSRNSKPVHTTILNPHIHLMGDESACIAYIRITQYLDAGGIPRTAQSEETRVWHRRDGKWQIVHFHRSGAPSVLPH
Protocol: as §1

NEK2 = NEK2 (Homo sapiens (Human), UniProt P51955); conditions: read-out: percent of control
Protocol: as §1

TLK1 = TLK1 (Homo sapiens (Human), UniProt Q9UKI8); conditions: read-out: percent of control
Protocol: as §1

TAOK3 = TAOK3 (Homo sapiens (Human), UniProt Q9H2K8); conditions: read-out: percent of control
Protocol: as §1

MEK6 = MEK6 (Homo sapiens (Human), UniProt P52564); conditions: read-out: percent of control
Protocol: as §1

HIPK2 = HIPK2 (Homo sapiens (Human), UniProt Q9H2X6); conditions: read-out: percent of control
Protocol: as §1

p38-gamma = p38-gamma (Homo sapiens (Human), UniProt P53778); conditions: read-out: percent of control
Protocol: as §1

DAPK2 = DAPK2 (Homo sapiens (Human), UniProt Q9UIK4); conditions: read-out: percent of control
Protocol: as §1

WNK1 = WNK1 (Homo sapiens (Human), UniProt Q9H4A3); conditions: read-out: percent of control
Protocol: as §1

SIK = SIK (Homo sapiens (Human), UniProt P57059); conditions: read-out: percent of control
Protocol: as §1

PCTK1 = PCTK1 (Homo sapiens (Human), UniProt Q00536); conditions: read-out: percent of control
Protocol: as §1

MYLK2 = MYLK2 (Homo sapiens (Human), UniProt Q9H1R3); conditions: read-out: percent of control
Protocol: as §1

CAMK1B = CAMK1B (Homo sapiens (Human), UniProt Q6P2M8); conditions: read-out: percent of control
Protocol: as §1

MEK1 = MEK1 (Homo sapiens (Human), UniProt Q02750); conditions: read-out: percent of control
Protocol: as §1

CDK4 = CDK4 (Homo sapiens (Human), UniProt P11802); conditions: read-out: percent of control
CDK4, sequence (P11802 whole entry): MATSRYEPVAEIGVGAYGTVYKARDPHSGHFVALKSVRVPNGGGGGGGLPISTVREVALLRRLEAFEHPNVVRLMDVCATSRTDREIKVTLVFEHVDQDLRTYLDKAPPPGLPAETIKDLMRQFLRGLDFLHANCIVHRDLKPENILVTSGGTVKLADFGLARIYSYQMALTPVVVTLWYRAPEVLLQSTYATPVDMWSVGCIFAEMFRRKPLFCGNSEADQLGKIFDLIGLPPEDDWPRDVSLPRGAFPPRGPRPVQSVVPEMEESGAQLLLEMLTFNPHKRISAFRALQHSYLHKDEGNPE
Protocol: as §1

PIK3CA(M1043I) = PIK3CA(M1043I) (Homo sapiens (Human), UniProt P42336, M1043I); conditions: read-out: percent of control
Protocol: as §1

TNIK = TNIK (Homo sapiens (Human), UniProt Q9UKE5); conditions: read-out: percent of control
TNIK, sequence (Q9UKE5 whole entry): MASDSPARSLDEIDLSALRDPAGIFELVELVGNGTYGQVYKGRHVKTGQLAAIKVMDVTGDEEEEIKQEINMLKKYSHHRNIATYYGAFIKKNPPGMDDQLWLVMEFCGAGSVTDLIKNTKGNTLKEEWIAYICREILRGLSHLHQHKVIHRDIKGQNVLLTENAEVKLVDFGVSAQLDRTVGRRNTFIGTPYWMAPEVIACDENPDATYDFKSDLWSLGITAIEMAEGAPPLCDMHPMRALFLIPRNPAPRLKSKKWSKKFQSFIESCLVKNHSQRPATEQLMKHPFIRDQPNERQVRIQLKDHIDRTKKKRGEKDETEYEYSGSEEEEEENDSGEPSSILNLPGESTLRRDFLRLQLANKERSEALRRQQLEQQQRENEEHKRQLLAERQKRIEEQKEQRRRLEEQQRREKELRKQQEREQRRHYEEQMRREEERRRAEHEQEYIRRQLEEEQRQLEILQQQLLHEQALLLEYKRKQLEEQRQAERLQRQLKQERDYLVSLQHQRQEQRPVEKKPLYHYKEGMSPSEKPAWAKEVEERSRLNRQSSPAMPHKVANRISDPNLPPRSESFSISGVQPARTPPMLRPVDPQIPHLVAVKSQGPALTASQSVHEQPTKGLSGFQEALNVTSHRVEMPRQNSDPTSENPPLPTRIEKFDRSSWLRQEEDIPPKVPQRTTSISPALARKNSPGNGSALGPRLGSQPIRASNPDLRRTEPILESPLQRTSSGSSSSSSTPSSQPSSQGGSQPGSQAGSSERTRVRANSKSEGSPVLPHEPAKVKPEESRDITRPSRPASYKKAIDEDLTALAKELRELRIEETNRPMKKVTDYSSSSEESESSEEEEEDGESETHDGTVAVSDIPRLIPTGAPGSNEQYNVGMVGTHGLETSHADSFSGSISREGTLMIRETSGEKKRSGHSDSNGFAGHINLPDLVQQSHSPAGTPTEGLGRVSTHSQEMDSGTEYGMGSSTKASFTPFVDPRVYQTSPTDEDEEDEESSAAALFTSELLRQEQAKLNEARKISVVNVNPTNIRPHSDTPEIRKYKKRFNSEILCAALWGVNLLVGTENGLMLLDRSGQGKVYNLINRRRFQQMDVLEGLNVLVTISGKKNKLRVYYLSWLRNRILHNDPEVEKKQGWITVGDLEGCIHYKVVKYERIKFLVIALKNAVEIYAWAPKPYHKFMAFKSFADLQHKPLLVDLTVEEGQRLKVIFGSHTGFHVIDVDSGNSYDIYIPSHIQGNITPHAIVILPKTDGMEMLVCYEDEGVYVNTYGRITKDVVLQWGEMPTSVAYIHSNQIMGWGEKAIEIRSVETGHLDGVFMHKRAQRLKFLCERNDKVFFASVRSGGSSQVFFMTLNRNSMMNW
Protocol: as §1

FER = FER (Homo sapiens (Human), UniProt P16591); conditions: read-out: percent of control
FER, sequence (P16591 whole entry): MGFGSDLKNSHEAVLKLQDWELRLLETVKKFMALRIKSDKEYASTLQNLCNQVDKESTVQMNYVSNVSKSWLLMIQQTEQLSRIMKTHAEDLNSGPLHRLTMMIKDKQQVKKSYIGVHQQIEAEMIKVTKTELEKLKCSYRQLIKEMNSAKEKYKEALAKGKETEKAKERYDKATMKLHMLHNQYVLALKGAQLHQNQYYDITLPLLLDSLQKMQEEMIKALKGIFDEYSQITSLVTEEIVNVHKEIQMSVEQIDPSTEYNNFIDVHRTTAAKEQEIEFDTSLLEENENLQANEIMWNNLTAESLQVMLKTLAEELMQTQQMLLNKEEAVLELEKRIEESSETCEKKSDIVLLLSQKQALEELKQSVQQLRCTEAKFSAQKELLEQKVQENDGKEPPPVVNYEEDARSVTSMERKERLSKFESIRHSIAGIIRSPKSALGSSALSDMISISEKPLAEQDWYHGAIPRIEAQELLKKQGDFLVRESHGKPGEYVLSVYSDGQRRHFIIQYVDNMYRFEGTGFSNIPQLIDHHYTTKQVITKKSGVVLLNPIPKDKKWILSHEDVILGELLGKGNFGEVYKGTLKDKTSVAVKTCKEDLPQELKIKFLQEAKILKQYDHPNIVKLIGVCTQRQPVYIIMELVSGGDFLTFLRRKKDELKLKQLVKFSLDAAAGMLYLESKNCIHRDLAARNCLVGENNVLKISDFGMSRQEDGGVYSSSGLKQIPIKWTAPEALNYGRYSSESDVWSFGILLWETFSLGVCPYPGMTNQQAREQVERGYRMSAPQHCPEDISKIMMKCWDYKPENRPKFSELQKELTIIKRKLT
Protocol: as §1

EPHA5 = EPHA5 (Homo sapiens (Human), UniProt P54756); conditions: read-out: percent of control
Protocol: as §1

IKK-epsilon = IKK-epsilon (Homo sapiens (Human), UniProt Q14164); conditions: read-out: percent of control
Protocol: as §1

TBK1 = TBK1 (Homo sapiens (Human), UniProt Q9UHD2); conditions: read-out: percent of control
Protocol: as §1

PAK3 = PAK3 (Homo sapiens (Human), UniProt O75914); conditions: read-out: percent of control
Protocol: as §1

ACVR1 = ACVR1 (Homo sapiens (Human), UniProt Q04771); conditions: read-out: percent of control
Protocol: as §1

RAF1 = RAF1 (Homo sapiens (Human), UniProt P04049); conditions: read-out: percent of control
Protocol: as §1

DDR1 = DDR1 (Homo sapiens (Human), UniProt Q08345); conditions: read-out: percent of control
Protocol: as §1

PIK4CB = PIK4CB (Homo sapiens (Human), UniProt Q9UBF8); conditions: read-out: percent of control
Protocol: as §1

FLT3 (D835H) = FLT3 (D835H) (Homo sapiens (Human), UniProt P36888, D835H); conditions: read-out: percent of control
Protocol: as §1

WNK3 = WNK3 (Homo sapiens (Human), UniProt Q9BYP7); conditions: read-out: percent of control
Protocol: as §1

PRKD2 = PRKD2 (Homo sapiens (Human), UniProt Q9BZL6); conditions: read-out: percent of control
Protocol: as §1

FLT3 (ITD,F691L) = conditions: 1 μM
Protocol: as §1

EGFR(S752-I759del) = EGFR(S752-I759del) (Homo sapiens (Human), UniProt P00533, DEL752-759); conditions: read-out: percent of control
EGFR(S752-I759del), sequence (P00533 other isoform, or with tags, fused parts or gaps del S752-I759): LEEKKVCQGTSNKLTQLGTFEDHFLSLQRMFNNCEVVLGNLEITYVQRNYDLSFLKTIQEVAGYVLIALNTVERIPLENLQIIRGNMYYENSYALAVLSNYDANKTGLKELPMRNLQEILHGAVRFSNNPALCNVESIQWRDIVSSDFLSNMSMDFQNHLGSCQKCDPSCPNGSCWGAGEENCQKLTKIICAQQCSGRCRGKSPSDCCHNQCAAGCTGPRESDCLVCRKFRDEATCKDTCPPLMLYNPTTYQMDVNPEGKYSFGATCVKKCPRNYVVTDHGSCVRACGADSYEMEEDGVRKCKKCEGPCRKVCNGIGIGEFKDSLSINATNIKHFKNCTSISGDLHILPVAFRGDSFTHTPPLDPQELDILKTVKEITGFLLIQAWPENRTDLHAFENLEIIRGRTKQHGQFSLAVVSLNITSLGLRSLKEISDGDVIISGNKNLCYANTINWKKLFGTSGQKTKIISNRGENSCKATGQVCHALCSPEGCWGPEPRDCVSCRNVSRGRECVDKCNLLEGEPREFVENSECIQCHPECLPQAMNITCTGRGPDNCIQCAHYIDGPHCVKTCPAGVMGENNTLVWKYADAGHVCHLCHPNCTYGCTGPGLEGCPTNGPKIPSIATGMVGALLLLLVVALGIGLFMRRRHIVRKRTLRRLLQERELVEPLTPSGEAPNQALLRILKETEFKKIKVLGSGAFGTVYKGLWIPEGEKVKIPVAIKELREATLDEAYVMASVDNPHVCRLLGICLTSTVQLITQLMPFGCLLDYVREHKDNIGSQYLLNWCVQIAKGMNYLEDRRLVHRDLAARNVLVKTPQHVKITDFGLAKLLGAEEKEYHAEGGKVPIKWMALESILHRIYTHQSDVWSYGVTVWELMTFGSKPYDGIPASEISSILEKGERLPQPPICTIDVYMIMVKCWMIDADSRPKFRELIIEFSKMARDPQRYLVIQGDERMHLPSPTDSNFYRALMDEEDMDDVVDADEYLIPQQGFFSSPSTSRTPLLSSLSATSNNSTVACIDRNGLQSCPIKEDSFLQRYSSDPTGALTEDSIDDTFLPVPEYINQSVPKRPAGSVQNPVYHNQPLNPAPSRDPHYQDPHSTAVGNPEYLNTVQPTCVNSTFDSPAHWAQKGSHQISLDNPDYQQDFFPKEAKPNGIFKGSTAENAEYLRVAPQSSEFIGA
Protocol: as §1

CTK = CTK (Homo sapiens (Human), UniProt P42679); conditions: read-out: percent of control
Protocol: as §1

PIP5K2B = PIP5K2B (Homo sapiens (Human), UniProt P78356); conditions: read-out: percent of control
Protocol: as §1

| SMILES | remaining binding at 1 µM (MERTK) | remaining binding at 1 µM (YANK2) | remaining binding at 1 µM (PRKCH) | remaining binding at 1 µM (CDC2L1) | remaining binding at 1 µM (YANK1) | remaining binding at 1 µM (CSNK2A2) | remaining binding at 1 µM (CAMK2A) | remaining binding at 1 µM (NEK2) | remaining binding at 1 µM (TLK1) | remaining binding at 1 µM (TAOK3) | remaining binding at 1 µM (MEK6) | remaining binding at 1 µM (HIPK2) | remaining binding at 1 µM (p38-gamma) | remaining binding at 1 µM (DAPK2) | remaining binding at 1 µM (WNK1) | remaining binding at 1 µM (SIK) | remaining binding at 1 µM (PCTK1) | remaining binding at 1 µM (MYLK2) | remaining binding at 1 µM (CAMK1B) | remaining binding at 1 µM (MEK1) | other results |
| --- | --- | --- | --- | --- | --- | --- | --- | --- | --- | --- | --- | --- | --- | --- | --- | --- | --- | --- | --- | --- | --- |
| CCN1CCN(Cc2cc(NC(=O)c3ccc(C)c(-c4ccc5nc(NC(=O)C6CC6)cn5c4)c3)cc(C(F)(F)F)c2)CC1 [Compound I-6, 3-(2-(cyclopropanecarboxamido)imidazo[1,2-a]pyridin-6-yl)-N-(3-((4-ethylpiperazin-1-yl)methyl)-5-(trifluoromethyl)phenyl)-4-methylbenzamide] | 0.25% | 100% | 100% | 33% | 93% | 100% | 100% | 100% | 97% | 0.9% | 95% | 94% | 9.4% | 100% | 100% | 100% | 28% | 83% | 97% | 94% | remaining binding at 1 µM (CDK4): 36%; remaining binding at 1 µM (PIK3CA(M1043I)): 73%; remaining binding at 1 µM (TNIK): 14%; remaining binding at 1 µM (FER): 6%; remaining binding at 1 µM (EPHA5): 2.5%; remaining binding at 1 µM (IKK-epsilon): 87%; remaining binding at 1 µM (TBK1): 96%; remaining binding at 1 µM (PAK3): 66%; remaining binding at 1 µM (ACVR1): 100%; remaining binding at 1 µM (RAF1): 18%; remaining binding at 1 µM (DDR1): 0.15%; remaining binding at 1 µM (PIK4CB): 96%; remaining binding at 1 µM (FLT3 (D835H)): 2%; remaining binding at 1 µM (WNK3): 83%; remaining binding at 1 µM (PRKD2): 100%; percent of control (FLT3 (ITD,F691L)): 34%; remaining binding at 1 µM (EGFR(S752-I759del)): 65%; remaining binding at 1 µM (CTK): 31%; remaining binding at 1 µM (PIP5K2B): 86% |
| CCN1CCN(Cc2cc(NC(=O)c3ccc(C)c(-c4ccc5nc(NC(=O)C6CC6)cn5n4)c3)cc(C(F)(F)F)c2)CC1 [Compound I-2, 3-(2-(cyclopropanecarboxamido)imidazo[1,2-b]pyridazin-6-yl)-N-(3-((4-ethylpiperazin-1-yl)methyl)-5-(trifluoromethyl)phenyl)-4-methylbenzamide] | 0.25% | 91% | 86% | 44% | 93% | 94% | 100% | 84% | 100% | 0.2% | 94% | 93% | 0% | 94% | 100% | 100% | 16% | 92% | 49% | 92% | remaining binding at 1 µM (CDK4): 46%; remaining binding at 1 µM (PIK3CA(M1043I)): 100%; remaining binding at 1 µM (TNIK): 16%; remaining binding at 1 µM (FER): 29%; remaining binding at 1 µM (EPHA5): 2.3%; remaining binding at 1 µM (IKK-epsilon): 80%; remaining binding at 1 µM (TBK1): 75%; remaining binding at 1 µM (PAK3): 82%; remaining binding at 1 µM (ACVR1): 100%; remaining binding at 1 µM (RAF1): 13%; remaining binding at 1 µM (DDR1): 0.05%; remaining binding at 1 µM (PIK4CB): 97%; remaining binding at 1 µM (FLT3 (D835H)): 2.2%; remaining binding at 1 µM (WNK3): 92%; remaining binding at 1 µM (PRKD2): 97%; percent of control (FLT3 (ITD,F691L)): 12%; remaining binding at 1 µM (EGFR(S752-I759del)): 80%; remaining binding at 1 µM (CTK): 38%; remaining binding at 1 µM (PIP5K2B): 93% |
